{"source": "paper PMC8563958", "about": "(Cell Research, 2021)", "key": {"MC4R H158A": {"molecular_target": "T1, MC4R H158A (Homo sapiens, UniProt P32245, H158A)", "T1 construct": "expressed in transfected cells; host or cells: HEK293 (transient, vector pcDps)", "type": "cell-based"}, "[1]": {"settings": "ref not given, cited from earlier work", "excerpt": "In contrast to other M ..."}, "wild-type MC4R (WT)": {"molecular_target": "T2, wild-type MC4R (WT) (Homo sapiens, UniProt P32245)", "T2 construct": "expressed in transfected cells; host or cells: HEK293 (transient, vector pcDps)", "type": "cell-based", "settings": "set as 100 %, 1 µM ligand, HEK293, 40 min 37 °C, 1 mM IBMX, 4-8 experiments in triplicates"}, "[2]": {"molecular_target": "MC4R D122S, N-terminally HA-tagged (human) (UniProt P32245)"}, "MC5R": {"tested_on": "MC5R", "settings": "MC5R with V126; cited from earlier work"}, "MC4R L133 to methionine": {"tested_on": "MC4R L133 to methionine", "settings": "cited from earlier work"}, "MC1R": {"tested_on": "MC1R", "settings": "cited from earlier work"}, "MC4R [3]": {"tested_on": "MC4R", "settings": "cited from earlier work", "excerpt": "(Fig. 1a). The binding mode of SHU9119 is generally like that of NDP-α-MSH. […] W6^3 is also clamped by H264^6.54 (TM6) and S188^EL2, and R5^2 connects TM3−TM4 and EL2 through hydrogen bonds with S188^EL2 and I185^4.61 (Fig. 2i; Supplementary information, Fig. S11 and Table S4)."}, "MC4R [4]": {"tested_on": "MC4R", "parameters": "method as in earlier work", "settings": "ref 4 (AgRP); ref not given for MSH; cited from earlier work"}, "[5]": {"molecular_target": "wild-type MC4R, N-terminally HA-tagged (signalling construct) (human) (UniProt P32245)"}}, "note": "Like-named read-outs stand apart in the source and are kept apart here.", "data": [{"molecule": "CC(=O)N[C@@H](CCCNC(=N)N)C(=O)N[C@H]1CSSC[C@@H](C(N)=O)NC(=O)[C@H](Cc2c[nH]c3ccccc23)NC(=O)[C@H](CCCNC(=N)N)NC(=O)[C@@H](Cc2ccccc2)NC(=O)[C@H](Cc2c[nH]cn2)NC(=O)[C@@H](C)NC1=O", "note": "[setmelanotide]", "values": [{"measurement": "maximum Gq/11 signaling", "setting": "MC4R H158A", "result": 50, "unit": "%"}, {"measurement": "Gs signaling-related adverse effects", "setting": "[1]; in contrast to other MC4R agonists", "result": "does not cause common Gs signaling-related adverse effects, such as tachycardia or hypertension"}, {"measurement": "adverse effects", "setting": "[1]; rare, moderate", "result": "skin hyperpigmentation"}, {"measurement": "Emax cAMP", "setting": "wild-type MC4R (WT)", "result": "100 % of WT"}]}, {"molecule": "NDP-α-MSH (peptide)", "values": [{"measurement": "EC50 of cAMP accumulation (Gs signaling), transfected HEK293 cells", "setting": "[2]", "result": 9, "unit": "nM"}]}, {"molecule": "SHU9119", "values": [{"measurement": "mode of action at MC5R", "setting": "MC5R", "result": "partial agonist"}, {"measurement": "mode of action at L133M mutant", "setting": "MC4R L133 to methionine", "result": "reverses SHU9119 to an agonist"}, {"measurement": "mode of action at MC1R", "setting": "MC1R; MC1R with M128, 37 (ref 36)", "result": "partial agonist"}, {"measurement": "mode of action in MC1R–Gs complex", "setting": "MC1R; cryo-EM structure of active MC1R–Gs complex", "result": "acting as an agonist"}, {"measurement": "mode of action at MC4R", "setting": "MC4R [3]; antagonism", "result": "antagonizes the MC4R"}]}, {"molecule": "agouti-related peptide (SSRRCVRLHESCLGQQVPCCDPCATCYCRFFNAFCYCRKLGTAMNPCSRT; UniProt O00253 83-132, looked up) [AgRP]", "values": [{"measurement": "effect on appetite", "setting": "MC4R [4]", "result": "orexigenic effects"}, {"measurement": "mode of action at MC4R", "setting": "MC4R [3]; reducing high levels of basal signaling activity", "result": "inverse agonist"}]}, {"molecule": "melanotan II", "values": [{"measurement": "mode of action at MC4R", "setting": "MC4R [3]", "result": "agonizes MC4R"}, {"measurement": "mode of action at MC4R", "setting": "MC4R [3]; listed as melatonan II", "result": "agonistic effects"}]}, {"molecule": "setmelanotide (peptide)", "values": [{"measurement": "potency (EC50) of cAMP accumulation, transfected HEK293 cells", "setting": "[5]", "result": 1.2, "unit": "nM"}]}, {"molecule": "β-MSH", "values": [{"measurement": "effect on appetite", "setting": "MC4R [4]", "result": "appetite-reducing effects"}]}]}
